Among the data in publication PMC12409781 (RSC Advances, 2025) are IC50 values, retold here.

What all share (assay): Cell viability assay
Holding throughout (assay type): cell-based

One assay has as its system MIA PaCa-2. The settings on record: Homo sapiens, MIA PaCa-2, 72 h, read-out: IC50 MIA PaCa-2.
The next assay relates to Panc-1. Conditions: Homo sapiens, PANC-1, 72 h, read-out: IC50 Panc-1, 72 hours, CCK-8.
In a further assay the test system is KPC. The settings on record: 72 h, read-out: IC50 KPC.

As to `Nc1ccn([C@@H]2O[C@H](CO)[C@@H](O)C2(F)F)c(=O)n1` [Gemcitabine], the figures for the IC50 in the assay with MIA PaCa-2, in the assay on Panc-1 and with KPC were 7.83 ± 0.28 µM, 11.6 ± 0.56 µM and 5.36 ± 0.25 µM, respectively.
